The values below come from ChEMBL document CHEMBL3596150, “Acylated glucosylflavones as α-glucosidase inhibitors from Tinospora crispa leaf” (Bioorg Med Chem, 2015).

Data set [1] in a line: Inhibition of Bacillus stearothermophilus alpha-glucosidase. Also on record: species or system Geobacillus stearothermophilus.
Data set [2] is described as follows: Retention time of the compound by HPLC-SPE-NMR analysis. It is filed as physicochemical.
Data set [3] concerns Geobacillus stearothermophilus. Put plainly: Inhibition of Bacillus stearothermophilus alpha-glucosidase at 10 ug/ml.
The nature of data set [4]: Cytotoxicity against human WS1 cells. It is filed as cell-based.

SMILES strings stand for the structures. Activity calls are given as the source filed them. The rule behind the calls is not given here.

The term IC50 denotes the concentration at which inhibition is half-maximal. A high value points to weaker potency.

The compound `O=c1cc(-c2ccc(O)c(O)c2)oc2cc(O)cc(O)c12` [LUTEOLIN] showed an IC50 in data set [1] of 86.1 µM. This counts as double-digit micromolar.
In the case of `O=c1cc(-c2ccc(O)c(O)c2)oc2c([C@@H]3O[C@H](CO)[C@@H](O)[C@H](O)[C@H]3O)c(O)cc(O)c12` [ORIENTIN], the Retention_time in data set [2] is on record as 16.6 min.
Still for that read-out and setting: for `COc1cc(/C=C/C(=O)O[C@@H]2[C@@H](O)[C@H](O)[C@@H](CO)O[C@H]2c2c(O)cc3oc(-c4ccc(O)c(O)c4)cc(=O)c3c2O)cc(OC)c1O` the value was 29.1 min.
Take `O=c1cc(-c2ccc(O[C@@H]3O[C@H](CO)[C@@H](O)[C@H](O)[C@H]3O)c(O)c2)oc2cc(O)cc(O)c12`: the inhibition result in data set [3] is “inactive”.
On to `O=C(/C=C/c1ccc(O)cc1)O[C@@H]1[C@@H](O)[C@H](O)[C@@H](CO)O[C@H]1c1c(O)cc2oc(-c3ccc(O)c(O)c3)cc(=O)c2c1O`, for which half-maximal inhibition in data set [1] (IC50) was put at 35.7 µM. For the same compound, the Retention_time in data set [2] turned out to be 29.9 min.
On to `O=c1cc(-c2ccc(O)cc2)oc2cc(O[C@@H]3O[C@H](CO)[C@@H](O)[C@H](O)[C@H]3O)cc(O)c12` [APIGETRIN], for which, in data set [3], the inhibition result was “inactive”. The compound further returned a Retention_time in data set [2] of 25.7 min.
As for `O=c1cc(-c2ccc(O)cc2)oc2cc(O)cc(O)c12` [APIGENIN], the IC50 in data set [1] was determined as 34.6 µM. In data set [2], this compound gave a Retention_time of 50.2 min.
Turning to `O=c1cc(-c2ccc(O)c(O)c2)oc2cc(O[C@@H]3O[C@H](CO)[C@@H](O)[C@H](O)[C@H]3O)cc(O)c12` [GALUTEOLIN], the inhibition entry in data set [3] is “inactive”. This compound also showed a Retention_time in data set [2] of 20.7 min.
In data set [1], `O=C(/C=C/c1ccc(O)cc1)O[C@@H]1[C@@H](O)[C@H](O)[C@@H](CO)O[C@H]1c1c(O)cc2oc(-c3ccc(O)cc3)cc(=O)c2c1O` had a half-maximal inhibitory concentration (IC50) of 4.3 µM. In data set [2], this compound yielded a Retention_time of 36.5 min.
For `O=C(/C=C\c1ccccc1)OC[C@H]1O[C@@H](Oc2cc(O)c3c(=O)cc(-c4ccc(O)cc4)oc3c2)[C@H](O)[C@@H](O)[C@@H]1O`, in that order: 11.3 µM and 57.4 min.
Consider `O=C(/C=C/c1ccc(O)cc1)OC[C@H]1O[C@@H](Oc2cc(O)c3c(=O)cc(-c4ccc(O)cc4)oc3c2)[C@H](O)[C@@H](O)[C@@H]1O`, for which the IC50 in data set [1] stood at 14.6 µM; in data set [4] it was 42 µM. This compound also showed a Retention_time in data set [2] of 43.4 min.
In data set [1], `O=c1cc(-c2ccc(O)cc2)oc2cc(O)c([C@@H]3O[C@H](CO)[C@@H](O)[C@H](O)[C@H]3O)c(O)c12` [ISOVITEXIN] had a 50% inhibitory concentration (IC50) of 61.2 µM. In addition, in data set [2], the Retention_time stood at 19.5 min.
The compound `COc1cc(/C=C/C(=O)OC[C@H]2O[C@@H](Oc3cc(O)c4c(=O)cc(-c5ccc(O)cc5)oc4c3)[C@H](O)[C@@H](O)[C@@H]2O)ccc1O` returned a half-inhibitory concentration (IC50) in data set [1] of 8.8 µM. In data set [2], this compound showed a Retention_time of 41.8 min.
For `O=C(/C=C\c1ccc(O)cc1)OC[C@H]1O[C@@H](Oc2cc(O)c3c(=O)cc(-c4ccc(O)cc4)oc3c2)[C@H](O)[C@@H](O)[C@@H]1O`, in that order: 10.1 µM and 44.9 min.
`COc1cc(-c2cc(=O)c3c(O)cc(O)cc3o2)ccc1O` [CHRYSOERIOL] returned a Retention_time in data set [2] of 51.4 min.
Take `O=c1cc(-c2ccc(O)c(O)c2)oc2cc(O)c([C@@H]3O[C@H](CO)[C@@H](O)[C@H](O)[C@H]3O)c(O)c12` [ISOORIENTIN]: the 50% inhibitory concentration (IC50) in data set [1] came out at 1530 µM. The Retention_time in data set [2] came out at 14.9 min.
Regarding `C[C@H]1O[C@H](O[C@H]2[C@H](O)[C@@H](O)[C@@H](O[C@H]3[C@H](O)[C@@H](O)C(O)O[C@@H]3CO)O[C@@H]2CO)[C@H](O)[C@@H](O)[C@@H]1N[C@H]1C=C(CO)[C@@H](O)[C@H](O)[C@H]1O` (stereo not given in full) [ACARBOSE], 0.033 µM corresponded to half-maximal inhibition in data set [1] (IC50). This counts as double-digit nanomolar.
On to `O=C(/C=C/c1ccccc1)OC[C@H]1O[C@@H](Oc2cc(O)c3c(=O)cc(-c4ccc(O)c(O)c4)oc3c2)[C@H](O)[C@@H](O)[C@@H]1O`, for which the Retention_time in data set [2] came to 51.4 min.
